Literature values, collected in patent publication US9072782B2, “Gadolinium complex, method for preparing same, and MRI contrast agent comprising same” (CATHLOIC UNIVERSITY INDUSTRY ACADEMIC COOPERATION FOUNDATION, priority 2009, dated 2015).

Key:
[1] = Hiroki Yoshikawa et al., Gazoshindan 1986
[2] = prior DTPA-Gd

half-life [1]: about 14 minutes
time taken to be washed out from tissue [2]: about 30 minutes
SMILES: O=C([O-])CN(CCN(CC(=O)[O-])CC(=O)O)CCN(CC(=O)[O-])CC(=O)O.[Gd+3] [DTPA-Gd]
